Among the data in paper PMC5064435, “Inhibition of endoplasmic reticulum glucosidases is required for in vitro and in vivo dengue antiviral activity by the iminosugar UV-4” (Antiviral Research, 2016) are IC50 values, retold here.

Holding throughout (assay type): biochemical
Test [1] concerns the target T1, Mouse ER α-glucosidase I (Mus musculus, UniProt Q80UM7).
T1 construct: gene Mogs
T1 sequence (Q80UM7 1-834): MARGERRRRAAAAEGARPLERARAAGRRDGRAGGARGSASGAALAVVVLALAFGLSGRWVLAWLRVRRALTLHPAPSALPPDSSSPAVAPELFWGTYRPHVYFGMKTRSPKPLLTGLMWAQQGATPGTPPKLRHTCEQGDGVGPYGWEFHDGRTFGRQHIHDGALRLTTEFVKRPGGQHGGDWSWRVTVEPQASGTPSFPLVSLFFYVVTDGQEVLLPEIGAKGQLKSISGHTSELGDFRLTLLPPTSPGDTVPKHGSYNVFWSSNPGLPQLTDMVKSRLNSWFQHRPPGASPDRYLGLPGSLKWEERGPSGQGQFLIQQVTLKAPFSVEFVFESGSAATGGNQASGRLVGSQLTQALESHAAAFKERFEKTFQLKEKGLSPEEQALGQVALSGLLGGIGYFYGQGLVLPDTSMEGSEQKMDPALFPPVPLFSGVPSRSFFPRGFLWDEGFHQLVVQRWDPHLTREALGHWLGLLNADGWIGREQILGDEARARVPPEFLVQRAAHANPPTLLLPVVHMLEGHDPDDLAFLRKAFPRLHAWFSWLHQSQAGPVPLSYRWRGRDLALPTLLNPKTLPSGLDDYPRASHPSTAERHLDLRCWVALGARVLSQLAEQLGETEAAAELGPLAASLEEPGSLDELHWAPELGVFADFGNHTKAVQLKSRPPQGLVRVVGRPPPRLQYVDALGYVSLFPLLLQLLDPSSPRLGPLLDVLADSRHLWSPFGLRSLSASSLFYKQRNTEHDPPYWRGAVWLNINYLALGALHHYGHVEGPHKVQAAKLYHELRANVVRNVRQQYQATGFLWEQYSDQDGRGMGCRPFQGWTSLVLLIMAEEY
The test can be described thus: enzyme inhibition assay, purified enzyme. To be noted: read-out: IC50 ^a / MON-6d-DGJ. An excerpt:
enzyme inhibition assay, purified enzyme on Mouse ER α-glucosidase I

Test [2] addresses T2, Human lysosome (α-glucosidase) (Homo sapiens, UniProt P10253).
T2 construct: gene GAA
The test can be described thus: enzyme inhibition assay. To be noted: read-out: IC50 ^a / MON-6d-DGJ. An excerpt:
enzyme inhibition assay on Human lysosome (α-glucosidase)

In test [3] the target is T3, Mouse ER α-glucosidase II (Mus musculus, UniProt Q8BHN3).
T3 construct: gene Ganab; with Glucosidase 2 subunit beta
T3 sequence (Q8BHN3 33-944): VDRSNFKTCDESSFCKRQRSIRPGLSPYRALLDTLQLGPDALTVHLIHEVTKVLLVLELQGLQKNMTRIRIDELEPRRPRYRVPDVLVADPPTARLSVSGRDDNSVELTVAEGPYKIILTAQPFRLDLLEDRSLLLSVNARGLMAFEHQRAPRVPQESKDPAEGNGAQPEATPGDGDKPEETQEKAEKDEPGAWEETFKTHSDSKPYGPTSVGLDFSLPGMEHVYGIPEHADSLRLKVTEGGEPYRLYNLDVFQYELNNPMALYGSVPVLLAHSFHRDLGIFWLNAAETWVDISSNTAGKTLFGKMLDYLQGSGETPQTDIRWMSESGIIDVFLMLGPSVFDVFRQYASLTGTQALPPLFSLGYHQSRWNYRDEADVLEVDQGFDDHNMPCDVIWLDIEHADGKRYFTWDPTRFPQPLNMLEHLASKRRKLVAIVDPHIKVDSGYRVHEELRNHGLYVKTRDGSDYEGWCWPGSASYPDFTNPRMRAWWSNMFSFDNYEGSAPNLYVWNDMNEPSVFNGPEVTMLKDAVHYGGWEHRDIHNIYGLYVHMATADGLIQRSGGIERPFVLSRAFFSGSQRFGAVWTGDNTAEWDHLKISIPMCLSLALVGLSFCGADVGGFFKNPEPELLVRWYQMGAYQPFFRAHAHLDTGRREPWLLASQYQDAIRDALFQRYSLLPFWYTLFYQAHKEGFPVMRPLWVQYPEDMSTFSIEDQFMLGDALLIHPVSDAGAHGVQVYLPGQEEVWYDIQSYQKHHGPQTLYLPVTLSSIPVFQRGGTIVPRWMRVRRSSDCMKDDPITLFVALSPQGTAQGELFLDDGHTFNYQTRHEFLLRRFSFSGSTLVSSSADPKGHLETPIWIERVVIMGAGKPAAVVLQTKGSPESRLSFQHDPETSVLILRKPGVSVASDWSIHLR
T3 sequence (O08795 15-521 partner): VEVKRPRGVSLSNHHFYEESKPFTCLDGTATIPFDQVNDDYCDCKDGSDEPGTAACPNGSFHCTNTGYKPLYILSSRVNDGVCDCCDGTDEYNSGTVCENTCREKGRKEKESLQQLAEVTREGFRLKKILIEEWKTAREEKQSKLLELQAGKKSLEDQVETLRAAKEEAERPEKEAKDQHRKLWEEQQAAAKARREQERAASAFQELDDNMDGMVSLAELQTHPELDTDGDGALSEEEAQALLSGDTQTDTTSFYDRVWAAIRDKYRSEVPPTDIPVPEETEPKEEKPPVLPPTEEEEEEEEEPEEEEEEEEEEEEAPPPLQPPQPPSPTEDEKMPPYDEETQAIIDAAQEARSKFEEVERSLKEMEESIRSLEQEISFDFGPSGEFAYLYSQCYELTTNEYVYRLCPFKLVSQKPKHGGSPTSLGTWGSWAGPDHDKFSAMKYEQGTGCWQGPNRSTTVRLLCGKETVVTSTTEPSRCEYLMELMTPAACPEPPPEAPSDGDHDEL
The test can be described thus: enzyme inhibition assay, purified enzyme. To be noted: read-out: IC50 ^a / MON-6d-DGJ. An excerpt: enzyme inhibition assay, purified enzyme on Mouse ER α-glucosidase II

For test [4], the target named is T4, Human lysosome (α-galactosidase) (Homo sapiens, UniProt P06280).
T4 construct: gene GLA
T4 sequence (P06280 32-429): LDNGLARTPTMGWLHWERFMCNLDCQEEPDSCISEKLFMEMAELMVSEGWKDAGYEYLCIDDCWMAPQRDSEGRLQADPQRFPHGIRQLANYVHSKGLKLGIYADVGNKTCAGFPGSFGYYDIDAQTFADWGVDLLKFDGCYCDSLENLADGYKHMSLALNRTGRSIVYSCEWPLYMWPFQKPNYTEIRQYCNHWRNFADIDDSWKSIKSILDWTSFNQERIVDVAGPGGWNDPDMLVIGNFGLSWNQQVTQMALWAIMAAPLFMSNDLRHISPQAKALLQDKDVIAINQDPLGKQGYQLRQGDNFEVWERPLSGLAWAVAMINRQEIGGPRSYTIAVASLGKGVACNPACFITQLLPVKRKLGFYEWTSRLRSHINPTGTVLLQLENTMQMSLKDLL
The test can be described thus: enzyme inhibition assay. To be noted: read-out: IC50 ^a / MON-6d-DGJ. An excerpt:
enzyme inhibition assay on Human lysosome (α-galactosidase)

The target in test [5] is T5, ceramide glucosyltransferase (HL60 glucosyltransferase) (Homo sapiens, UniProt Q16739).
T5 construct: gene UGCG; native enzyme isolated from human promyelocytic HL60 cells
T5 sequence (Q16739 1-394): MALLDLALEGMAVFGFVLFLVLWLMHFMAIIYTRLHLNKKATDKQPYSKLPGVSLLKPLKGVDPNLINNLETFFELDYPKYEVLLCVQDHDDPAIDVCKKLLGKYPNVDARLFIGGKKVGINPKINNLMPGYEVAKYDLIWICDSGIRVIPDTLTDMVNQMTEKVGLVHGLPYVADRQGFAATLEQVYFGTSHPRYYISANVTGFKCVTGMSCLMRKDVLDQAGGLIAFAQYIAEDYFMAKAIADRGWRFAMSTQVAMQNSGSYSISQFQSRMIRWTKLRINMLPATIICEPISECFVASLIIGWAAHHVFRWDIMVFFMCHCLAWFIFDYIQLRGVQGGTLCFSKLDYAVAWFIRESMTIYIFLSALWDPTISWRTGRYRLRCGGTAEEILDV
The test can be described thus: enzyme inhibition assay, enzyme isolated from HL60 cells. To be noted: read-out: IC50 ^a / MON-6d-DGJ. An excerpt:
enzyme inhibition assay, enzyme isolated from HL60 cells on ceramide glucosyltransferase (HL60 glucosyltransferase)

Test [6] deals with T6, Rat intestinal isomaltase (Rattus norvegicus, UniProt P23739).
T6 construct: gene Si; native rat intestinal enzyme; isomaltase (N-terminal) subunit of sucrase-isomaltase
Description: enzyme inhibition assay. To be noted: read-out: IC50 ^a / MON-6d-DGJ. An excerpt:
enzyme inhibition assay on Rat intestinal isomaltase

In test [7] the target is T7, Rat intestinal maltase.
T7 construct: gene Mgam; native rat intestinal enzyme activity; maltase may be maltase-glucoamylase and/or sucrase-isomaltase
The test can be described thus: enzyme inhibition assay. To be noted: IC50 not reached up to maximal dose; read-out: IC50 ^a / MON-6d-DGJ. An excerpt:
enzyme inhibition assay on Rat intestinal maltase

Test [8] concerns the target T8, Rat intestinal sucrase (Rattus norvegicus, UniProt P23739).
T8 construct: gene Si; native rat intestinal enzyme; sucrase (C-terminal) subunit of sucrase-isomaltase
Description: enzyme inhibition assay. As to conditions: read-out: IC50 ^a / MON-6d-DGJ. An excerpt:
enzyme inhibition assay on Rat intestinal sucrase

T6 sequence (P23739 1-1013 limits assumed): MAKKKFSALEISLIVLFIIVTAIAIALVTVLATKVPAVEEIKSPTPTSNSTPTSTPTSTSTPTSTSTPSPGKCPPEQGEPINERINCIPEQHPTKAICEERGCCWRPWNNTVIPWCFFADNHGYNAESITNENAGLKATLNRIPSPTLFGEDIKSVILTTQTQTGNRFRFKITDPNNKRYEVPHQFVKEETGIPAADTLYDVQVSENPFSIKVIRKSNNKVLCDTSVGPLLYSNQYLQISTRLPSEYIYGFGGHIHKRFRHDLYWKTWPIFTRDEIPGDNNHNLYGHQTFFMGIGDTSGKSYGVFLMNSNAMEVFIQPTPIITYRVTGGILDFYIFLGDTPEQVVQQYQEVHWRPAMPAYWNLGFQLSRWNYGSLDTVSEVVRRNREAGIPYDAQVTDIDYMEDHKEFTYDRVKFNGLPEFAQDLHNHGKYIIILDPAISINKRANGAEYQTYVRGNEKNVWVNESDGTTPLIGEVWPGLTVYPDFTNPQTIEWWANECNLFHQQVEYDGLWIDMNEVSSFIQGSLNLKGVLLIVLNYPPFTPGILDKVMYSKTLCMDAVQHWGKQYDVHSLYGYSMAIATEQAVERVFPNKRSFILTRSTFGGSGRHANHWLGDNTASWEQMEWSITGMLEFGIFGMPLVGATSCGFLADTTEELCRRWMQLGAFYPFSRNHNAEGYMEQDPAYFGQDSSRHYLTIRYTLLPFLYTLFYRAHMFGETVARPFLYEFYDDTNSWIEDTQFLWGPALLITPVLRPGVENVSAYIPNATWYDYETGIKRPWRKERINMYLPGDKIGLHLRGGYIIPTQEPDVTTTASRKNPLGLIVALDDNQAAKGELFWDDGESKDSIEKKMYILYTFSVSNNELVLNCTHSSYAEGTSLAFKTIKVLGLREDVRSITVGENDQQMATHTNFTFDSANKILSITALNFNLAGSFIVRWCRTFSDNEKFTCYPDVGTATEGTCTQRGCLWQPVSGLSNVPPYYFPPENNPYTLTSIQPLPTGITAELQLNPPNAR
T8 sequence (P23739 1014-1841 limits assumed): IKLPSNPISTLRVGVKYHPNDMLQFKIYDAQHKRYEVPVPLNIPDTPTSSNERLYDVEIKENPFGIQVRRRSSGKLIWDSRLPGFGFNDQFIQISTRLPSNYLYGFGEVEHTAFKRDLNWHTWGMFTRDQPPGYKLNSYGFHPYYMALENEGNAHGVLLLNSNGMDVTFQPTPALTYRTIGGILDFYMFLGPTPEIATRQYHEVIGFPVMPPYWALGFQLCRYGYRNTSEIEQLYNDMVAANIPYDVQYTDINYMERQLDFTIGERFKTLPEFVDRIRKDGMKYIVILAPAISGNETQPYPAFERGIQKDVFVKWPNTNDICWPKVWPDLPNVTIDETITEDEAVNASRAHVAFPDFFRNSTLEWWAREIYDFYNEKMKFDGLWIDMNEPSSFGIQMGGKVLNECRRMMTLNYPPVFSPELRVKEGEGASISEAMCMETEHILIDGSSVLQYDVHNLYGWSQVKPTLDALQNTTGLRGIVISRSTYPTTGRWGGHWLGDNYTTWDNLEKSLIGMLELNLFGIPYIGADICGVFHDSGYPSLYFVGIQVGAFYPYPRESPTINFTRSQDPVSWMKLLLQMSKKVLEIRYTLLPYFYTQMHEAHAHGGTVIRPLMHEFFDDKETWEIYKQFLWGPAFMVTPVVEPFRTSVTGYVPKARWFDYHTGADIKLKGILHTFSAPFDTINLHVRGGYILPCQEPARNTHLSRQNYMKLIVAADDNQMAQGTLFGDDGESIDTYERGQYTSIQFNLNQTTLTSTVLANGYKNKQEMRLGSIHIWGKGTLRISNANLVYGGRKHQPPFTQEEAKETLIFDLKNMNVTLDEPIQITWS

On to `COCCCCCCCCCN1C[C@H](O)[C@@H](O)[C@@H](O)[C@H]1C` [MON-6d-DGJ, N-(9′-methoxynonyl)-1,6-dideoxygalactonojirimycin], for which the IC50 in test [1] was > 1050 µM; in test [2], > 1050 µM; in test [3], > 1050 µM; in test [4], 256 µM; in test [5], 88.3 µM; in test [6], > 1050 µM. The IC50 in test [7] and in test [8] was > 1050 µM in each case.
